≈ marks a conversion by molar mass, not a printed value.
Assays:
M. luteus ATCC4698 = format: cell-based, Micrococcus luteus; details: ATCC4698
Protocol: (§1) Antibacterial activity of fermentation samples or purified samples was determined by Mueller-Hinton Agar diffusion bioassays using M. luteus ATCC 4698 as the indicator strain. Susceptibility testing (minimum inhibitory concentration [MIC]) for all aerobic organisms, with the exception of S. pneumoniae, was performed following the recommendations of CLSI. Susceptibility testing of S. pneumoniae was performed by two-fold serial dilutions in brain-heart-infusion broth supplemented with 50 μg/ml Ca^2+. Vancomycin was used as a reference antibiotic, and plates were incubated aerobically, with shaking, for 18–20 hr at 37°C with the MIC defined as the lowest concentration of drug that prevented visible growth.

S. pneumoniae BAA-255 = format: cell-based, Streptococcus pneumoniae; details: BAA-255
Protocol: as §1

S. aureus R33 MRSA = format: cell-based, Staphylococcus aureus; details: R33
Protocol: as §1

S. aureus SH1000 = format: cell-based, Staphylococcus aureus; details: SH1000
Protocol: as §1

E. faecium ATCC19579 = format: cell-based; details: ATCC19579
Protocol: as §1

E. faecium 7131121 VRE = format: cell-based; details: 7131121 VRE
Protocol: as §1

E. faecalis ATCC29212 = format: cell-based; details: ATCC29212
Protocol: as §1

MIC M. luteus ATCC4698 (M. luteus ATCC4698) [µg/mL]	MIC S. pneumoniae BAA-255 (S. pneumoniae BAA-255)	MIC S. aureus R33 MRSA (S. aureus R33 MRSA) [µg/mL]	MIC S. aureus SH1000 (S. aureus SH1000) [µg/mL]	MIC E. faecium ATCC19579 (E. faecium ATCC19579) [µg/mL]	MIC E. faecium 7131121 VRE (E. faecium 7131121 VRE) [µg/mL]	MIC E. faecalis ATCC29212 (E. faecalis ATCC29212) [µg/mL]	Structure (SMILES)
< 4	< 4 µg/mL	64 (≈ 33.1 µM)	>64	64 (≈ 33.1 µM)	>64	32 (≈ 16.6 µM)	C=C1NC(=O)C2NC(=O)[C@H](CC(C)C)NC(=O)C(NC(=O)[C@@H]3CSC(C)C(NC(=O)[C@H](Cc4ccccc4)NC(=O)C4NC(=O)[C@@H](N)CSC4C)C(=O)N[C@@H](CC(C)C)C(=O)N4CCC[C@H]4C(=O)NCC(=O)NCC(=O)NCC(=O)N[C@@H](Cc4ccc(O)cc4)C(=O)N[C@@H](C(C)C)C(=O)N3)C(C)SC[C@H](NC(=O)[C@H](CCC(=O)O)NC1=O)C(=O)N[C@@H]([C@@H](C)CC)C(=O)NC=CSC2C (stereo partly shown) [G10Y]
–	1 µg/mL (≈ 0.548 µM)	8 (≈ 4.38 µM)	32 (≈ 17.5 µM)	16 (≈ 8.76 µM)	–	32 (≈ 17.5 µM)	C=C1NC(=O)C2NC(=O)[C@H]([C@@H](C)CC)NC(=O)C(NC(=O)[C@@H]3CSC(C)C(NC(=O)[C@H](Cc4ccccc4)NC(=O)C4NC(=O)[C@@H](N)CSC4C)C(=O)N[C@@H](CC(C)C)C(=O)N4CCC[C@H]4C(=O)NCC(=O)NCC(=O)NCC(=O)NCC(=O)N[C@@H](C(C)C)C(=O)N3)C(C)SC[C@H](NC(=O)[C@H](CCC(=O)O)NC1=O)C(=O)N[C@@H]([C@@H](C)CC)C(=O)NC=CSC2C (stereo partly shown) [L14I]
2 (≈ 1.08 µM)	4 µg/mL (≈ 2.17 µM)	16 (≈ 8.68 µM)	32 (≈ 17.4 µM)	64 (≈ 34.7 µM)	64 (≈ 34.7 µM)	64 (≈ 34.7 µM)	C=C1NC(=O)C2NC(=O)[C@H](CCSC)NC(=O)C(NC(=O)[C@@H]3CSC(C)C(NC(=O)[C@H](Cc4ccccc4)NC(=O)C4NC(=O)[C@@H](N)CSC4C)C(=O)N[C@@H](CC(C)C)C(=O)N4CCC[C@H]4C(=O)NCC(=O)NCC(=O)NCC(=O)NCC(=O)N[C@@H](C(C)C)C(=O)N3)C(C)SC[C@H](NC(=O)[C@H](CCC(=O)O)NC1=O)C(=O)N[C@@H]([C@@H](C)CC)C(=O)NC=CSC2C (stereo partly shown) [L14M]
8 (≈ 4.22 µM)	–	32 (≈ 16.9 µM)	>64	>64	>64	>64	C=C1NC(=O)C2NC(=O)[C@H](CC(C)C)NC(=O)C(NC(=O)[C@@H]3CSC(C)C(NC(=O)[C@H](Cc4ccccc4)NC(=O)C4NC(=O)[C@@H](N)CSC4C)C(=O)N[C@@H](CC(C)C)C(=O)N4CCC[C@H]4C(=O)NCC(=O)N[C@@H](CCC(N)=O)C(=O)NCC(=O)NCC(=O)N[C@@H](C(C)C)C(=O)N3)C(C)SC[C@H](NC(=O)[C@H](CCC(=O)O)NC1=O)C(=O)N[C@@H]([C@@H](C)CC)C(=O)NC=CSC2C (stereo partly shown) [G8Q]
16 (≈ 8.57 µM)	64, >64 μg/ml	–	64 (≈ 34.3 µM)	>64	>64	>64	C=C1NC(=O)C2NC(=O)[C@H](CC(C)C)NC(=O)C(NC(=O)[C@@H]3CSC(C)C(NC(=O)[C@H](Cc4ccccc4)NC(=O)C4NC(=O)[C@@H](N)CSC4C)C(=O)N[C@@H](CC(C)C)C(=O)N[C@@H](Cc4c[nH]cn4)C(=O)NCC(=O)NCC(=O)NCC(=O)NCC(=O)N[C@@H](C(C)C)C(=O)N3)C(C)SC[C@H](NC(=O)[C@H](CCC(=O)O)NC1=O)C(=O)N[C@@H]([C@@H](C)CC)C(=O)NC=CSC2C (stereo partly shown) [P6H]

Reference: paper PMC2706954, “Dissecting Structural and Functional Diversity of the Lantibiotic Mersacidin” (Chemistry & Biology, 2009)
